Reference: patent US20100305113A1, “Substituted Imidazopyridazines as Lipid Kinase Inhibitors” (priority 2007, published 2010)

Tests used:
Assay type in all cases: biochemical
Settings in all cases: Enzymatic Data
PI3K alfa = target: T1, PI3K alfa (Homo sapiens, UniProt P42336); experiment: PI3K alfa enzymatic assay (Kinase-Glo luminescence)
T1 construct: p85(iSH2) fusion partner (same polypeptide; see partner chain) (N); 12x Gly linker (N); His tag (C); made in house; host or cells: baculovirus; Tn5 (Trichoplusia ni) or TiniPro insect cells
T1 sequence (P42336 with tags, fused parts or gaps limits assumed): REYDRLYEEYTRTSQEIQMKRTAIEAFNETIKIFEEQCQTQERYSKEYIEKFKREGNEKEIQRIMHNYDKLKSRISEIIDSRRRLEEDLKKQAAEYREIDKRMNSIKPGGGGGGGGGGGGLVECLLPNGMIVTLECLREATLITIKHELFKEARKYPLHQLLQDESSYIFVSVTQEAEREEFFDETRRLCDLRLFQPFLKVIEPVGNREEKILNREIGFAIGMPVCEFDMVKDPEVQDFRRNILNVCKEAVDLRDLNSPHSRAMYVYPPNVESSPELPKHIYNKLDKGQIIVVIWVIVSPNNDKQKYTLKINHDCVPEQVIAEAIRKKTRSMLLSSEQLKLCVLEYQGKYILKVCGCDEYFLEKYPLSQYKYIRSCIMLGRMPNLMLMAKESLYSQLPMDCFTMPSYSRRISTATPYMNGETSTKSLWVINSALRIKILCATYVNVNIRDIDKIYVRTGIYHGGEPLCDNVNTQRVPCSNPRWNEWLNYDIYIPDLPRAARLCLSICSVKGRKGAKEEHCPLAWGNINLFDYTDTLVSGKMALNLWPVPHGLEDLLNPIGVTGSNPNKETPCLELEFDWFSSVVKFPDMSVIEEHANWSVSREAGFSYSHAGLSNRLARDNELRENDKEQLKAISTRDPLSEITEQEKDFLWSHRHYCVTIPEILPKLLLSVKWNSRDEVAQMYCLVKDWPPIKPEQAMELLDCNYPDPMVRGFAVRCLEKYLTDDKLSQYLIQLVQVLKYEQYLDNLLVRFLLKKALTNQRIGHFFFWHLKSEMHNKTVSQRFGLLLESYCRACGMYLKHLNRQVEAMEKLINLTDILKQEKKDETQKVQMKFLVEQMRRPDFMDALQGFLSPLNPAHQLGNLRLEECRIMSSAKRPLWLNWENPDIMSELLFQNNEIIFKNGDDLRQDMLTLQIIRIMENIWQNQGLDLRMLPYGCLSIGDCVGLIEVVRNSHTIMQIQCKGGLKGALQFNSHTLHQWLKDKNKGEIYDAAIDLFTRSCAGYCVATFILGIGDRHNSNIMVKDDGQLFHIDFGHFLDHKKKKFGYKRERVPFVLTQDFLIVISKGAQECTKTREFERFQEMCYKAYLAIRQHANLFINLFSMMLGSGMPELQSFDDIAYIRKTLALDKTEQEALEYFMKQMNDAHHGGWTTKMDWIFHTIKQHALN
Procedure: (§1) In a more preferred assay, the kinase reaction is performed in a final volume of 10 μL per well of a low volume non binding CORNING, 384 well black plate (Cat. No. #3676). The final concentrations of ATP and phosphatidyl inositol (PI) in the assay are 1 μM and 10 μg/mL respectively. The reaction is started by the addition of ATP.
(§2) The components of the assay are added per well as follows:
(§3) 50 nL test compounds in 90% DMSO per well, in columns 1-20, 8 concentrations (⅓ and 1/3.33 serial dilution step) in single. • Low control: 50 nL of 90% DMSO in half the wells of columns 23-24 (0.45% in final). • High control: 50 nL of reference compound (e.g. compound of Example 7 in WO 2006/122806, incorporated by reference herein that regard) in the other half of columns 23-24 (2.5 μM in final). • Standard: 50 nL of reference compound as just mentioned diluted as the test compounds in columns 21-22 • 20 mL ‘buffer’ are prepared per assay: • 200 μL of 1M TRIS HCl pH7.5 (10 mM in final) • 60 μL of 1M MgCl2 (3 mM in final) • 500 μL of 2M NaCl (50 mM in final) • 100 μL of 10% CHAPS (0.05% in final) • 200 μL of 100 mM DTT (1 mM in final) • 18.94 mL of nanopure water • 10 mL ‘PI’ are prepared per assay: • 200 μL of 1 mg/ml L-alpha-Phosphatidylinositol (Liver Bovine, Avanti Polar Lipids Cat. No. 840042C MW=909.12) prepared in 3% OctylGlucoside ([…]) • 9.8 mL of ‘buffer’ • 10 mL ‘ATP’ are prepared per assay: • 6.7 μL of 3 mM stock of ATP giving a final concentration of 1 μM per well • 10 mL of ‘buffer’ • 2.5 mL of each PI3K construct are prepared per assay in ‘PI’ with the following final concentration: • 10 nM PI3K alfa BV-1075 • 25 nM beta BV-949 • 10 nM delta BV-1060 • 150 nM gamma BV-950 • 5 μL of ‘PI/PI3K’ are added per well. • 5 μl ‘ATP’ are added per well to start the reaction. • The plates are then incubated at room temperature for 60 minutes (alfa, beta, delta) or 120 minutes (gamma). • The reaction is terminated by the addition of 10 μL Kinase-Glo (Promega Cat. No. #6714). • The assay plates are read after 10 minutes in Synergy 2 reader (BioTek, Vermont USA) with an integration time of 100 milliseconds and sensitivity set to 191. • Output: The High control is around 60′000 counts and the Low control is 30′000 or lower • This luminescence assay gives a useful Z′ ratio between 0.4 and 0.7 The Z′ value is a universal measurement of the robustness of an assay. A Z′ between 0.5 and 1.0 is considered an excellent assay.
(§4) IC50 is determined by a four parameter curve fitting routine that comes aloneg with “excel fit”. A 4 Parameter logistic equation is used to calculate IC50 values (IDBS XLfit) of the percentage inhibition of each compound at 8 concentrations (usually 10, 3.0, 1.0, 0.3, 0.1, 0.030, 0.010 and 0.003 μM). Alternatively, IC50 values are calculated using idbsXLfit model 204, which is a 4 parameter logistic model.

PI3K beta = target: T2, PI3K beta (Homo sapiens, UniProt P42338); experiment: PI3K beta enzymatic assay (Kinase-Glo luminescence)
T2 construct: for the full-length p110-b subunit are generated and fused by overlapping PCR; p85(iSH2) fusion partner (same polypeptide; see partner chain) (N); Gly linker (N); His tag (C); made in house; host or cells: baculovirus; Tn5 (Trichoplusia ni) or TiniPro insect cells
T2 sequence (P42338 with tags, fused parts or gaps limits assumed): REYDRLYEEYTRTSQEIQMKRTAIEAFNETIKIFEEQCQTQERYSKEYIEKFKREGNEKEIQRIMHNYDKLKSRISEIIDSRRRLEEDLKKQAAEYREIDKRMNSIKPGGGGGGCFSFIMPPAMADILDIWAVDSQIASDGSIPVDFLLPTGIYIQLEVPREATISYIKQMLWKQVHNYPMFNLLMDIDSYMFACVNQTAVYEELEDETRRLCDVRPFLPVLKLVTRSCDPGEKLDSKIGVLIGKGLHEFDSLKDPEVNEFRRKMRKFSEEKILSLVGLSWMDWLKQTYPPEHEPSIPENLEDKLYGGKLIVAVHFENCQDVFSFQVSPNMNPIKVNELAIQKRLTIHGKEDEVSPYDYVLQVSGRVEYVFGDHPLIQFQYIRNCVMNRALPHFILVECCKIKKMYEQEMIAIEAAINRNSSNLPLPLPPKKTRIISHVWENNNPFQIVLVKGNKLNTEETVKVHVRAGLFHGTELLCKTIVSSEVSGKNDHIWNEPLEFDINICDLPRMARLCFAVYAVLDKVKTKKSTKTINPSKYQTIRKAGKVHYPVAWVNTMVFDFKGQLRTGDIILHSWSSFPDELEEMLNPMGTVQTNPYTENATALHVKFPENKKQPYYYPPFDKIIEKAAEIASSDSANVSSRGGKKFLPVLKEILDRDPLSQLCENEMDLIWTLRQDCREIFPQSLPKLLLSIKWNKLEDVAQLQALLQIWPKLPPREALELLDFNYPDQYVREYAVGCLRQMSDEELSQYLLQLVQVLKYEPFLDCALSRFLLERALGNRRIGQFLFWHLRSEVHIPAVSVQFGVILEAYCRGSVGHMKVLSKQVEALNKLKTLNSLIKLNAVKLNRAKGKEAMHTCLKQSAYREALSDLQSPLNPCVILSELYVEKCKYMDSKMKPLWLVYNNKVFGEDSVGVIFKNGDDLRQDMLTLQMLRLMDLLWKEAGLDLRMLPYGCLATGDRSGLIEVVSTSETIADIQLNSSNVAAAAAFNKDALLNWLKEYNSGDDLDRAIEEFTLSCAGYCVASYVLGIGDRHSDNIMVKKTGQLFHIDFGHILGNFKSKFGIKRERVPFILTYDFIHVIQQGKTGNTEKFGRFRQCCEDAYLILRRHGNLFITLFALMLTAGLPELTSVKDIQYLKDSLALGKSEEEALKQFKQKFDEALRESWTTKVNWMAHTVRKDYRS
Procedure: as §1, §2, §3
PI3Kβ BV-949 p85(iSH2)-Gly linker-p110b (Full-Length)-C-Term His Tag
as §4

PI3K delta = target: T3, PI3K delta (Homo sapiens, UniProt O00329); experiment: PI3K delta enzymatic assay (Kinase-Glo luminescence)
T3 construct: for the full-length p110-d subunit are generated and fused by overlapping PCR; p85(iSH2) fusion partner (same polypeptide; see partner chain) (N); Gly linker (N); His tag (C); made in house; host or cells: baculovirus; Tn5 (Trichoplusia ni) or TiniPro insect cells
T3 sequence (O00329 with tags, fused parts or gaps limits assumed): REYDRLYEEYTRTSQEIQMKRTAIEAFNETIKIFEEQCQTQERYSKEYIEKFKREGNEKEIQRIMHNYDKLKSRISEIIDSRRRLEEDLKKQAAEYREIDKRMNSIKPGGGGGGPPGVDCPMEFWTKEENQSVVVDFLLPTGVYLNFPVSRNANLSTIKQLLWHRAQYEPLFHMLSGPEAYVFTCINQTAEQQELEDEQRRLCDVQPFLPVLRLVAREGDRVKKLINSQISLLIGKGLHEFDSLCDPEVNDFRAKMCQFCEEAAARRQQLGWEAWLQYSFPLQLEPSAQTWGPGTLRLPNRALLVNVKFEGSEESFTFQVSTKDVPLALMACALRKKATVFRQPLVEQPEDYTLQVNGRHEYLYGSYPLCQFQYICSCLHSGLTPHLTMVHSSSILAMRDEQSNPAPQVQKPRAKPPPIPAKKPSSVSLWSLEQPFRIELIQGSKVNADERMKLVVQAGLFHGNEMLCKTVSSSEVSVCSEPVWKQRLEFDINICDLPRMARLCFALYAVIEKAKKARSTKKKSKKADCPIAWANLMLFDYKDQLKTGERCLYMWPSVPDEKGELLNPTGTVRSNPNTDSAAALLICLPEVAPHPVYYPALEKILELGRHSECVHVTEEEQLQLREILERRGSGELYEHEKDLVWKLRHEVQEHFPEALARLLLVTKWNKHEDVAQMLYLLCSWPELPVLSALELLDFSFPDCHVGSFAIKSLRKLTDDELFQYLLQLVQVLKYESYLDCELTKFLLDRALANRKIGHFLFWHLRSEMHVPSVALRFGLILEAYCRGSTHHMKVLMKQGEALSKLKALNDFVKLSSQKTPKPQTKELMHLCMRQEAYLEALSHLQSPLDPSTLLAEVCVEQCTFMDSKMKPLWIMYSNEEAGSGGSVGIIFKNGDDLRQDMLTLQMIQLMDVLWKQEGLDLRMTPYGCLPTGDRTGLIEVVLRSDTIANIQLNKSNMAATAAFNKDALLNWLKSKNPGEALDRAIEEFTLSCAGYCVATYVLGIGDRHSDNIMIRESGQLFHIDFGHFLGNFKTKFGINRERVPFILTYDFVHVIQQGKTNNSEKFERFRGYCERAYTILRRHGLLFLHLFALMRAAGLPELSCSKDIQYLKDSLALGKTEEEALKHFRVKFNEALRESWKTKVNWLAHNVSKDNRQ
Procedure: as §1, §2, §3
PI3Kδ BV-1060 p85(iSH2)-Gly Linker-p110d (Full-Length)-C-term His Tact
as §4

PI3K gamma = target: T4, PI3K gamma (Homo sapiens, UniProt P48736); experiment: PI3K gamma enzymatic assay (Kinase-Glo luminescence)
T4 construct: His tag (C); made in house; host or cells: construct from Roger Williams lab (MRC LMB); baculovirus (pVL1393); Tn5 (Trichoplusia ni) or TiniPro insect cells
T4 sequence (P48736 144-1102 limits assumed): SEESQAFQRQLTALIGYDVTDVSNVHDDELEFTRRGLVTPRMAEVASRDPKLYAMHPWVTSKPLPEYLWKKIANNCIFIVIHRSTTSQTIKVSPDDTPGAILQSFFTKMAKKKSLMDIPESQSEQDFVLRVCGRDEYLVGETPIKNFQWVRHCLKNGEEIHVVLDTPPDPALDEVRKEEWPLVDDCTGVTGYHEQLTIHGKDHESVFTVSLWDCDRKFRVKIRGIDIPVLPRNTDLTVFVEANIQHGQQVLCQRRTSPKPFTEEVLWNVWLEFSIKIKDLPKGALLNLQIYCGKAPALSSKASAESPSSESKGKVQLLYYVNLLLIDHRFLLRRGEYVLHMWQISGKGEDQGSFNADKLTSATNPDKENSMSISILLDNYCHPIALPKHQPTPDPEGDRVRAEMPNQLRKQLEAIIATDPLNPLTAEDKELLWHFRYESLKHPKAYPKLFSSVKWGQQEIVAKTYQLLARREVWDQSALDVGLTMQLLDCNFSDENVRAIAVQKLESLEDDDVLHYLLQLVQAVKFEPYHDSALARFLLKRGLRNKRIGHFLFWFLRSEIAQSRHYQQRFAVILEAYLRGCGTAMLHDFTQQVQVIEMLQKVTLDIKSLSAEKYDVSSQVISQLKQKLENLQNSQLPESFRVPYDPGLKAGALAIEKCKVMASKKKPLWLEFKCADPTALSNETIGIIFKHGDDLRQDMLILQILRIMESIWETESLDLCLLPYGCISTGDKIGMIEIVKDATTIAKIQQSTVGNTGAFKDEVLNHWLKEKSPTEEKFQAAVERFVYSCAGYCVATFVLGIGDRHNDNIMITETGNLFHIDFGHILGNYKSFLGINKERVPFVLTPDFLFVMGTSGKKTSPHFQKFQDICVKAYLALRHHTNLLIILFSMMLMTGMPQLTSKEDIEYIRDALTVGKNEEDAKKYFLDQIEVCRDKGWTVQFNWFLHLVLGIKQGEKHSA
Procedure: as §1, §2, §3, §4

IC50 (PI3K alfa) | IC50 (PI3K beta) | IC50 (PI3K delta) | IC50 (PI3K gamma) | Structure (SMILES)
15 nM | 1830 nM | 362 nM | 662 nM | COc1cc(-c2ccc3nc(C)c(-c4cnc(N)c(C(F)(F)F)c4)n3n2)ccc1OCCN(CC(=O)N(C)C)CC(=O)N(C)C [Example 103, 2-[(2-{4-[3-(6-Amino-5-trifluoromethyl-pyridin-3-yl)-2-methyl-imidazol[1,2-b]pyridazin-6-yl]-2-methoxy-phenoxy}-ethyl)-dimethylcarbamoylmethyl-amino]-N,N-dimethyl-acetamide]
1010 nM | > 9100 nM | 5110 nM | > 9100 nM | Cc1nc2ccc(-c3ccc(OCC4(NC(=O)OC(C)(C)C)COC4)cc3)nn2c1-c1cnc(N)c(C(F)(F)F)c1 [Example 113, (3-{4-[3-(6-Amino-5-trifluoromethyl-pyridin-3-yl)-2-methyl-imidazo[1,2-b]pyridazin-6-yl]-phenoxymethyl}-oxetan-3-yl)-carbamic acid tert-butyl ester]
> 9100 nM | > 9100 nM | > 9100 nM | > 9100 nM | CCS(=O)(=O)c1ccc(-c2c(C)nc3ccc(-c4ccc(OC5CCN(C(=O)OC(C)(C)C)CC5)c(OC)c4)nn23)cc1 [Example 99, 4-{4-[3-(4-Ethanesulfonyl-phenyl)-2-methyl-imidazo[1,2-b]pyridazin-6-yl]-2-methoxy-phenoxy}-piperidine-1-carboxylic acid tert-butyl ester]
2320 nM | > 9100 nM | 4130 nM | 3310 nM | COc1cc(-c2ccc3nc(C)c(-c4cnc(N)c(C(F)(F)F)c4)n3n2)ccc1OCCNC(=O)Nc1cccc(C(F)(F)F)c1 [Example 93, 1-(2-{4-[3-(6-Amino-5-trifluoromethyl-pyridin-3-yl)-2-methyl-imidazo[1,2-b]pyridazin-6-yl]-2-methoxy-phenoxy}-ethyl)-3-(3-trifluoromethyl-phenyl)-urea]
58 nM | 4160 nM | > 25000 nM | > 25000 nM | CCOc1ccc(-c2ccc3nc(C)c(-c4ccc(-c5ccc(C#N)nc5)nc4)n3n2)cc1OC [Example 13, 5-[6-(4-Ethoxy-3-methoxy-phenyl)-2-methyl-imidazo[1,2-b]pyridazin-3-yl]-[2,3]bipyridinyl-6′-carbonitrile]
242 nM | > 9100 nM | 2710 nM | 194 nM | COc1cc(-c2ccc3nc(C)c(-c4cnc(N)c(C(F)(F)F)c4)n3n2)ccc1OCCNC(=O)Nc1cc(OC)c(OC)c(OC)c1 [Example 61]

More lines, now with the values behind:

Structure (SMILES) | IC50 (PI3K alfa) | IC50 (PI3K beta) | IC50 (PI3K delta) | IC50 (PI3K gamma)
Cc1nc2ccc(-c3ccc(OCC4(NC(=O)OCc5ccccc5)COC4)cc3)nn2c1-c1cnc(N)c(C(F)(F)F)c1 [Example 112, (3-{4-[3-(6-Amino-5-trifluoromethyl-pyridin-3-yl)-2-methyl-imidazo[1,2-b]pyridazin-6-yl]-phenoxymethyl}-oxetan-3-yl)-carbamic acid benzyl ester] | 821 nM | > 9100 nM | 1820 nM | > 9100 nM
COc1cc(-c2ccc3nc(C)c(-c4cnc(N)c(C(F)(F)F)c4)n3n2)ccc1OCCCNC(=O)OC(C)C [Example 80] | 175 nM | > 9100 nM | 2700 nM | 1930 nM
COCCOCCOCCOc1ccc(-c2ccc3nc(C)c(-c4ccc(S(C)(=O)=O)cc4)n3n2)cc1OC [Example 90, 3-(4-Methanesulfonyl-phenyl)-6-(3-methoxy-4-{2-[2-(2-methoxy-ethoxy)-ethoxy]-ethoxy}-phenyl)-2-methyl-imidazo[1,2-b]pyridazine] | 2360 nM | > 9100 nM | 1740 nM | 3460 nM
Cc1nc2ccc(-c3ccc4c(c3)OCO4)nn2c1-c1cnc2[nH]ccc2c1 [Example 109, 6-Benzo[1,3]dioxol-5-yl-2-methyl-3-(1H-pyrrolo[2,3-b]pyridin-5-yl)-imidazo[1,2-b]pyridazine] | 5910 nM | > 9100 nM | 3940 nM | > 9100 nM
COc1cc(-c2ccc3nc(C)c(-c4cnc(N)c(C(F)(F)F)c4)n3n2)ccc1OCCCN1CCNC1=O [Example 96, 1-(3-{4-[3-(6-Amino-5-trifluoromethyl-pyridin-3-yl)-2-methyl-imidazo[1,2-b]pyridazin-6-yl]-2-methoxy-phenoxy}-propyl)-imidazolidin-2-one] | 31 nM | 4860 nM | 424 nM | 805 nM
COc1cc(-c2ccc3nc(C)c(-c4cnc(N)c(C(F)(F)F)c4)n3n2)ccc1OCCNC(=O)Nc1cccc(C#N)c1 [Example 47] | 1810 nM | > 9100 nM | > 9100 nM | 4500 nM
COc1ccc(-c2ccc3nc(C)c(-c4ccnc(-n5ccnc5)n4)n3n2)cc1OC [Example 83, 6-(3,4-Dimethoxy-phenyl)-3-(2-imidazol-1-yl-pyrimidin-4-yl)-2-methyl-imidazo[1,2-b]pyridazine] | 276 nM | > 9100 nM | 397 nM | 1160 nM
CCS(=O)(=O)c1ccc(-c2c(C)nc3ccc(-c4ccc(OC5CCNCC5)c(OC)c4)nn23)cc1 [Example 102, 3-(4-Ethanesulfonyl-phenyl)-6-[3-methoxy-4-(piperidin-4-yloxy)-phenyl]-2-methyl-imidazo[1,2-b]pyridazine] | 2990 nM | > 9100 nM | 2560 nM | > 9100 nM
COc1ccc(-c2ccc3nc(C)c(-c4ccnc(NCC5CC5)n4)n3n2)cc1OC [Example 87, Cyclopropylmethyl-{4-[6-(3,4-dimethoxy-phenyl)-2-methyl-imidazo[1,2-b]pyridazin-3-yl]-pyrimidin-2-yl}-amine] | 296 nM | > 9100 nM | 357 nM | 98 nM
COc1ccc(-c2ccc3nc(C)c(-c4ccc(O)nc4)n3n2)cc1OC [Example 8, 5-[6-(3,4-dimethoxy-phenyl)-2-methyl-imidazo[1,2-b]pyridazin-3-yl]-pyridin-2-ol] | 42 nM | 1170 nM | 456 nM | 303 nM
COc1cc(-c2ccc3nc(C)c(-c4cnc(N)c(C(F)(F)F)c4)n3n2)ccc1OC1CCN(C(=O)OC(C)(C)C)CC1 [Example 92, 4-{4-[3-(6-Amino-5-trifluoromethyl-pyridin-3-yl)-2-methyl-imidazo[1,2-b]pyridazin-6-yl]-2-methoxy-phenoxy}-piperidine-1-carboxylic acid tert-butyl ester] | 1780 nM | > 9100 nM | > 9100 nM | > 9100 nM
